Consider twelve compounds from patent US20250109139A1, “TRICYCLIC COMPOUND, AND PREPARATION METHOD THEREFOR AND USE THEREOF” (SHANGHAITECH UNIVERSITY, priority 2022, published 2025).

For experiment [1], the target named is T1, 5-hydroxytryptamine 1A (5-HT1A) receptors (Homo sapiens (Human), UniProt P08908). Briefly: 5-HT1A receptor Gαi1 BRET (G protein trimer dissociation). The following applies: relative to endogenous ligand 5-hydroxytryptamine. Format: cell-based. For orientation: In BRET a luciferase serves as donor, and the signal depends on an acceptor being close.
In experiment [2] the target is T2, dopamine D2 receptors (Homo sapiens (Human), UniProt P14416). Briefly: Dopamine D2 receptor radioligand competition binding assay ([3H]-Methylspiperone). Conditions: [3H]-Methylspiperone 0.3 to 0.5 nM, 293T membranes; read-out: Affinity Ki. A digest of the protocol:
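Membranes from cells transfected with human D2 receptor, PEI-mediated; competition with [3H]-methylspiperone for 2 h at room temperature in the dark.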
In general terms: In a radioligand displacement assay an active substance lowers the binding of a labelled ligand.

For experiment [3], the target named is T1, 5-hydroxytryptamine 1A (5-HT1A) receptors. Description: 5-HT1A receptor β-arrestin2 BRET (recruitment). The class given is cell-based. The following applies: for Emax: relative to endogenous ligand 5-hydroxytryptamine. As for the experimental part:
At the same time, in order to examine the downstream β-arrestin2 signaling pathway mediated by 5-HT1A receptors, on the first day, a 6 cm culture dish was used for transfection with 500 ng of 5-HT1A receptors containing C-terminal seaweed luciferase (5HT1AR-Rluc), 500 ng of G protein-coupled receptor kinase 2 (GRK2), 2500 ng of β-arrestin2 containing N-terminal green fluorescent protein (GFP2-ARRB2), and 14 μL of PEI. The next day, the confluent cells of a 6 cm culture dish were digested and reseeded into a 96-well plate with 100 μL of culture medium added to each well. On the third day, the drugs were added for test. The 96-well plate was taken out from the cell incubator to decant the culture medium, 40 µL of the substrate coelenterazine 400a (final concentration of 5 μM) was added to each well, and then 20 μL of different drugs were added sequentially from left to right to ensure that the final concentration of the drug decreased gradually from bottom to top, with two replicates per treatment. Finally, the prepared samples were loaded on machine for test. The machine readout value reflected the recruitment of β-arrestin2 to the membrane or the dissociation of G protein trimer. The former indicated the degree of activation of the β-arrestin2 signaling pathway downstream of the 5-HT1 serotonin 1A receptors, and the latter indicated the degree of activation of the G protein signaling pathway downstream of the serotonin 1A receptors.

Experiment [4] addresses T2, dopamine D2 receptors. Briefly: Dopamine D2 receptor Gαi1 BRET (G protein trimer dissociation). The class given is cell-based. The following applies: for Emax: relative to endogenous ligand dopamine, read-out: Gαi1 BRET Emax % ± SEM; for EC50: unit printed only in Cariprazine cell, read-out: Gαi1 BRET EC50. A digest of the protocol:
(§1)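 G-protein assay: cells co-transfected with D2 receptor, Gαi1-Rluc, Gβ3 and Gγ9-GFP (1 μg each); β-arrestin2 assay: D2-Rluc, GRK2 and GFP2-β-arrestin2 co-transfected. Cells were reseeded after one day and tested on day three. Drug dilution series were added in duplicate with coelenterazine 400a (5 μM final), and the BRET signal was read.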

The target in experiment [5] is T1, 5-hydroxytryptamine 1A (5-HT1A) receptors. Description: 5-HT1A receptor radioligand competition binding assay ([3H]-LSD). Conditions: 293T membranes, read-out: Affinity Ki. As for the experimental part: The affinity of the compounds of the present disclosure for 5-hydroxytryptamine 1A (5-HT1A) receptors was determined by a radioligand competition binding assay.
In the first step, a cell membrane component containing specific 5-HT1A receptors was prepared. […] A vacuum pump was used to suck off the culture medium, 3 mL of lysis buffer was added to each culture dish, and the cells were placed in a 4° C. cold room for 10 minutes. After the cells were detached, the cells were transferred to a 15 mL centrifuge tube and centrifuged at 1500 rpm for 5 minutes at 4° C., and the supernatant was discarded. The cell pellet was transferred to a tissue homogenizer, and 3 mL of lysis buffer was added and fully ground until the cells were broken. Then, cell suspension was equally aliquoted into several EP tubes, centrifuged at 12000 rpm for 5 minutes at 4° C., and the supernatant was discarded. The precipitate was the cell membrane component containing the 5-HT1A receptors.
First, a standard binding buffer was added to the cell membrane component containing the 5-HT1A receptors, and the cell membrane was disrupted and resuspended with an electric tissue homogenizer. 30 μL of membrane protein suspension was added to each well of a 96-well plate. Then, 30 μL of different drugs were added to the 96-well plate sequentially from bottom to top to ensure that the final drug concentrations were 10^−5 M, 10^−6 M, 10^−7 M, 10^−8 M, 10^−9 M, and 0 M, with two replicates per treatment. Next, 30 μL of [^3H]-LSD was added to each well of the 96-well plate. The plate was incubated at room temperature in the dark for 2 hours. Detection was conducted. The machine readout value reflected the amount of [^3H]-LSD bound on the membrane, and after further data processing, the binding affinity Ki values of different compounds for the 5-HT1A receptors were obtained.

The target of experiment [6] is T2, dopamine D2 receptors. Briefly: Dopamine D2 receptor β-arrestin2 BRET (recruitment). Format: cell-based. The following applies: for Emax: relative to endogenous ligand dopamine, read-out: β-arrestin2 BRET Emax % ± SEM; for EC50: unit printed only in Cariprazine cell, read-out: β-arrestin2 BRET EC50. A digest of the protocol:
as §1

Another experiment deals with 5-HT2A receptors (Homo sapiens (Human), UniProt P28223). Briefly: 5-HT2A receptor radioligand competition binding assay ([3H]-ketanserin). The following applies: for Ki: read-out: Ki. As for the experimental part: The affinity of the compounds of the present disclosure for 5-HT2A receptors was determined by a radioligand competition binding assay. In the first step, a cell membrane component containing specific 5-HT2A receptor was prepared. A 10 cm dish was used for transfection with […] of 5-HT2A receptors and 40 μL of PEI. After 48 hours, the 10 cm dish was taken out from the cell incubator and the cultured cells had expressed the 5-HT2A receptors. A vacuum pump was used to suck off the culture medium, 3 mL of lysis buffer was added to each culture dish, and the cells were placed in a 4° C. cold room for 10 minutes. After the cells were detached, the cells were transferred to a 15 mL centrifuge tube and centrifuged at 1500 rpm for 5 minutes at 4° C., and the supernatant was discarded. The cell pellet was transferred to a tissue homogenizer, and 3 mL of lysis buffer was added and fully ground until the cells were broken. Then, cell suspension was equally aliquoted into several EP tubes, centrifuged at 12000 rpm for 5 minutes at 4° C., and the supernatant was discarded. The precipitate was the cell membrane component containing the 5-HT2A receptors. […] First, a standard binding buffer was added to the cell membrane component containing the 5-HT2A receptors, and the cell membrane was disrupted and resuspended with an electric tissue homogenizer. 30 μL of membrane protein suspension was added to each well of a 96-well plate. Then, 30 μL of different drugs were added to the 96-well plate sequentially from bottom to top to ensure that the final drug concentrations were 10^−5 M, 10^−6 M, 10^−7 M, 10^−8 M, 10^−9 M, and 0 M, with two replicates per treatment. Next, 30 μL of [^3H]-ketanserin was added to each well of the 96-well plate. The plate was incubated at room temperature in the dark for 2 hours. Detection was conducted. The machine readout value reflected the amount of [^3H]-ketanserin bound on the membrane, and after further data processing, the affinity Ki values of different compounds for the 5-HT2A receptors were obtained.

Experiment [7] deals with MK801-induced hyperlocomotion in mice. Briefly: Open field test, MK801-induced hyperlocomotion (schizophrenia-like model). Format: in vivo, C57B6 male mice. On the procedure: Experimental method: The experimental animals were C57B6 male mice, n=8 in each group. In this model, C57B6 mice were used as experimental animals. Hyperlocomotion of the mice in open field was induced by acute injection of a NMDA antagonist MK801, and modeled to test the inhibitory effect of different compounds on hyperlocomotion phenotype induced by MK801 All mouse behavior experiments were carried out during the light period. The whole process was recorded by the camera, and locomotive data were tracked and analyzed by behavioral tracking software. The compounds were administered intraperitoneally. Immediately after the injection, the mice entered the open field and their movement trajectories were recorded by the camera. After 30 minutes, the mice received 0.2 mg/kg of MK801 by intraperitoneal injection and returned to the open field immediately after administration, and the movement trajectories were further recorded for 120 minutes. The accumulative travelled distance of the mice was counted in a 5-minute bin. Data statistics were performed using Student-t-test analysis, *p<0.05, **p<0.01, ***p<0.001, ****p<0.0001. The total travelled distance of the mice in the 0-45 minute interval after administration of the compounds of the present disclosure at different doses in combination with MK801 (0.2 mg/kg) is shown in Table 10.

The mark [8] stands for this setting: [3H]-ketanserin, 293T membranes.

T2 sequence (P14416 whole entry): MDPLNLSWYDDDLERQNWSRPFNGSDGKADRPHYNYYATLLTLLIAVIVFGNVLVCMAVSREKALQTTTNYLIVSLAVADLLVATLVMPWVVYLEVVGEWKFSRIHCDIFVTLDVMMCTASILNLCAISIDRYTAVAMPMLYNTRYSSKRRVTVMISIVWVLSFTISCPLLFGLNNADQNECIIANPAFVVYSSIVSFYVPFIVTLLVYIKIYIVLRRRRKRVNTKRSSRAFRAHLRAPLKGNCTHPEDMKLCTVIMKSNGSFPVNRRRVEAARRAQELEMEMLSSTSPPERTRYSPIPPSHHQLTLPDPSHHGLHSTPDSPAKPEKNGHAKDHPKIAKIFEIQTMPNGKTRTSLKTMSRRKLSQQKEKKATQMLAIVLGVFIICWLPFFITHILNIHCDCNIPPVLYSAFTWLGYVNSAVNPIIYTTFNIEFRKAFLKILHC
T1 sequence (P08908 whole entry): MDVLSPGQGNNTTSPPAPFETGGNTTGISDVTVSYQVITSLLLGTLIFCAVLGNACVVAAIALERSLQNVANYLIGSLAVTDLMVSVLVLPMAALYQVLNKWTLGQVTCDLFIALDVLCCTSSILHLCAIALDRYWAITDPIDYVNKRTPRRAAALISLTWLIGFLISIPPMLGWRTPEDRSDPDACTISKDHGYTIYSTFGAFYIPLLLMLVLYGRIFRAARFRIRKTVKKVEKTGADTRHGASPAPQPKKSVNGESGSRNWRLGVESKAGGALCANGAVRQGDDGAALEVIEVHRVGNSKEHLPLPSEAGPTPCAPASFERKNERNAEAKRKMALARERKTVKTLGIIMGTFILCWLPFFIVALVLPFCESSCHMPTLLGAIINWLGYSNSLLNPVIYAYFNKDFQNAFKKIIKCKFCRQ
5-HT2A receptors, sequence (P28223 whole entry): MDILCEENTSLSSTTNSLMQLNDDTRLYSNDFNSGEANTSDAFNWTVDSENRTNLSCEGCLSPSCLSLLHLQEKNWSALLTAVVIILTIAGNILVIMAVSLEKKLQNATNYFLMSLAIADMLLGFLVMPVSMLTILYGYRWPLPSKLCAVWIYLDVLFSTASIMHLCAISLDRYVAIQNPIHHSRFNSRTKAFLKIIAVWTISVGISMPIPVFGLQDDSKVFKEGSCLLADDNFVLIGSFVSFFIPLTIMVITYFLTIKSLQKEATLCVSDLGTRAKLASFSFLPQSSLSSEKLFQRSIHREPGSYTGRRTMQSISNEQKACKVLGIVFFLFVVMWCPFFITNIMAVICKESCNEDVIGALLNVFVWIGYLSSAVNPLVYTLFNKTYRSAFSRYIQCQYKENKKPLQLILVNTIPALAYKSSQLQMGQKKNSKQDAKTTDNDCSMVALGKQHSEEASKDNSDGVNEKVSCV

`COc1cccc2c1cc1n2CCN(CCNC(=O)C2CCOCC2)C1` [I-C8, N-(2-(9-methoxy-3,4-dihydropyrazino[1,2-a]indol-2(1H)-yl)ethyl)tetrahydro-2H-pyran-4-carboxamide]: the Emax – broadly, the greatest response seen or fitted, relative to the assay's reference – was 81% in experiment [1] and 79% in experiment [3]. Also, at dopamine D2 receptors [2], the Ki (usually the equilibrium dissociation constant of an inhibitor or competing ligand from its target) was 239 nM.

Regarding `CN(C)C(=O)N[C@H]1CC[C@H](CCN2CCN(c3cccc(Cl)c3Cl)CC2)CC1` [Cariprazine, reference compound], in experiment [3], the “β-arrestin2 BRET EC50” value is listed as “Inactive”.

Take `CCOc1cccc2c3c(oc12)CN(CCN1CCc2nn(C)c(C)c2C1=O)CC3` [I-A39, 5-(2-(8-ethoxy-3,4-dihydrobenzofuro[2,3-c]pyridin-2(1H)-yl)ethyl)-2,3-dimethyl-2,5,6,7-tetrahydro-4H-pyrazolo[4,3-c]pyridin-4-one]: the Emax in experiment [1] was 82.2%; in experiment [3], 20.6%.

Turning to `CCOc1cccc2c3c(oc12)CN(CCc1ccc2ccc(=O)[nH]c2c1)CC3` [I-A27, 7-(2-(8-ethoxy-3,4-dihydrobenzofuro[2,3-c]pyridin-2(1H)-yl)ethyl)quinolin-2(1H)-one], the Emax in experiment [1] came out at 64.1%; on dopamine D2 receptors [4], 57%; on dopamine D2 receptors [6] it was 101%. The EC50 (in general, the concentration that produces a half-maximal response) on dopamine D2 receptors [4] is 45.2 nM; at dopamine D2 receptors [6], 55 nM. The Ki in experiment [5] is 0.64 nM.

As to `CCOc1cccc2c3c(oc12)CN(CCN1CCCc2c(ccn2C)C1=O)CC3` [I-A41, 5-(2-(8-ethoxy-3,4-dihydrobenzofuro[2,3-c]pyridin-2(1H)-yl)ethyl)-1-methyl-5,6,7,8-tetrahydropyrrolo[3,2-c]azepin-4(1H)-one], the Emax is 98.8% in experiment [1] and 14.3% in experiment [3]. In addition, the Ki in experiment [5] amounted to 0.78 nM.

As to `CCOc1cccc2c3c(oc12)CN(CCCCn1ncc(=O)n(C)c1=O)CC3` [I-A43, 2-(4-(8-ethoxy-3,4-dihydrobenzofuro[2,3-c]pyridin-2(1H)-yl)butyl)-4-methyl-1,2,4-triazine-3,5(2H,4H)-dione], the Emax in experiment [1] came to 84.3%. For the same compound, the Ki in experiment [5] was 0.015 nM. On dopamine D2 receptors [6], the Emax was 21% and the EC50 was found to be 48.8 nM.

For the compound `CCOc1cccc2c3c(oc12)CN(CCNC(=O)c1cccs1)CC3` [I-A36, N-(2-(8-ethoxy-3,4-dihydrobenzofuro[2,3-c]pyridin-2(1H)-yl)ethyl)thiophene-2-carboxamide], the Emax in experiment [1] worked out at 100%; in experiment [3], 38.7%; at dopamine D2 receptors [6] it was 12%. In addition, the EC50 on dopamine D2 receptors [6] was 0.75 nM.

In the case of `CCOc1cccc2c3c(oc12)CN(CCCCOc1ccc2ccc(=O)[nH]c2n1)CC3` [I-A29, 7-(4-(8-ethoxy-3,4-dihydrobenzofuro[2,3-c]pyridin-2(1H)-yl)butoxy)-1,8-naphthyridin-2(1H)-one], the “affinity for 5-HT2A receptors (in words)” value on 5-HT2A receptors is “very weak affinity”. In addition, the Ki on 5-HT2A receptors (setting [8]) was determined as 5520 nM; at dopamine D2 receptors [2] it was 27.7 nM. The Emax in experiment [1] stood at 90.3%; on dopamine D2 receptors [4], 40%; in experiment [3], 8.46%; at dopamine D2 receptors [6] it was 47%. In addition, the EC50 stood at 33.1 nM at dopamine D2 receptors [4] and 10.1 nM at dopamine D2 receptors [6].

For the compound `COc1cccc2c3c(oc12)CN(CCCCOc1ccc2c(c1)NC(=O)CC2)CC3` [I-A2, 7-(4-(8-methoxy-3,4-dihydrobenzofuro[2,3-c]pyridin-2(1H)-yl)butoxy)-3,4-dihydroquinolin-2(1H)-one], the “Distance travelled in 45 minutes” value was found to be 8795.03 cm in experiment [7] (MK801 0.2 mg/kg + compound 1 mg/kg i.p.), 6152.62 cm in experiment [7] (MK801 0.2 mg/kg + compound 4 mg/kg i.p.) and 3028.99 cm in experiment [7] (MK801 0.2 mg/kg + compound 16 mg/kg i.p.). Besides, the “affinity for 5-HT2A receptors (in words)” value on 5-HT2A receptors is listed as “very weak affinity”. Further, at 5-HT2A receptors (setting [8]), the “pKi ± SEM” value is recorded as “(5.95 ± 0.05)”. Moreover, the Ki on 5-HT2A receptors (setting [8]) came to 1110 nM.

In the case of `CCOc1cccc2c3c(oc12)CN(CCN1CCCc2ccccc2C1=O)CC3` [I-A40, 2-(2-(8-ethoxy-3,4-dihydrobenzofuro[2,3-c]pyridin-2(1H)-yl)ethyl)-2,3,4,5-tetrahydro-1H-benzo[c]azepin-1-one], the Emax in experiment [1] amounted to 101%; in experiment [3], 28.9%.

In the case of `CCOc1cccc2c3c(oc12)CN(CCNC(=O)C1CCCC1)CC3` [I-A33, N-(2-(8-ethoxy-3,4-dihydrobenzofuro[2,3-c]pyridin-2(1H)-yl)ethyl)cyclopentanecarboxamide], the Emax turned out to be 96.7% in experiment [1], 25.2% in experiment [3] and 18% at dopamine D2 receptors [6]. Moreover, at dopamine D2 receptors [6], the EC50 worked out at 56.7 nM.

As for `CCOc1cccc2c3c(oc12)CN(CCNC(=O)c1ccccc1)CC3` [I-A35, N-(2-(8-ethoxy-3,4-dihydrobenzofuro[2,3-c]pyridin-2(1H)-yl)ethyl)benzamide], the Emax in experiment [1] amounted to 102%; in experiment [3], 39.8%; at dopamine D2 receptors [6], 17%. Besides, the EC50 on dopamine D2 receptors [6] amounted to 3.17 nM.
